In one data set the test system is Beas-2B cells. Kind of data set: Cell viability / cytotoxicity (MTT assay) in Beas-2B cells. Format: cell-based, human. The settings on record: 24 h, DMSO = 100. Here is the method: Concurrent with the gene expression analysis, the cytotoxicity of the chalcone derivatives was determined using the MTT assay.
Mad. Chem. 2007, 15, 2952-2962. […] Four hours before the end of incubation, the medium was removed and 100 μL of MTT (5 mg/mL in serum free medium) was added to each well. The MTT was removed after 4 h, cells were washed with PBS, and 100 μL DMSO was added to each well to dissolve the water-insoluble MTT-formazan crystals. The absorbance was recorded at 570 nm in a plate reader (Molecular Devices, Sunnyvale, Calif.).
(Formazan colour is commonly taken as a measure of viable cells.)

Data set [1] relates to Nrf2. Put plainly: Concentration and time-course studies of Nrf2-driven antioxidant genes in Beas-2B cells. Format: cell-based, human. Here is the method:
The expression of Nrf2-regulated genes GCLM, HO1, and NQO1 was analyzed in the tissues by qRT-PCT as a surrogate marker of Nrf2 activity. β-actin was used for normalization. Data are representative of three independent experiments. […] The expression of Nrf2-regulated genes GCLM, HO1, and NQO1 was analyzed in the tissues by aRT-PCR. β-actin was used for normalization. Data are representative of three independent experiments. Values shown are mean±SD of triplicate wells (P≦0.05); […] […] Total RNA was extracted from cells/tissue using Qiagen RNeasy kit (Qiagen Corporation, Valencia, Calif.) and reverse transcription was performed by using random hexamers and MultiScribe reverse transcriptase according to the manufacturer's recommendations (Applied Biosystems, Foster City, Calif., USA). Quantitative real-time RT-PCR analyses of Nrf2, NQO1, HO1, and GCLM were performed by using Assay-on-Demand primers and probe sets from Applied Biosystems. Assays were performed using the ABI 7000 Taqman system (Applied Biosystems, Foster City, Calif.). β-actin was used for normalization.

The subject of data set [2] is Nrf2. Put plainly: Nrf2-regulated gene expression with or without N-acetyl-cysteine in Beas-2B cells. Type of data set: cell-based, human. The settings on record: 10 μM with NAC 10 mM, 24 h. Here is the method: Cells were harvested 24 h after the treatment and the Nrf2-driven expression of NQO1, HO-1, and GCLM was quantified. β-actin was used for normalization. Data are representative of three independent experiments. Values shown are mean±SD of triplicate wells (P≦0.05);
The activation of Nrf2 by various electrophiles and compounds that are Michael acceptors is attributed to changes in ROS production and or redox environment and or direct cysteine modification in Keap1. Nguyen, T., et al., The Nrf2-antioxidant response element signaling pathway and its activation by oxidative stress. J. Biol. Chem. 2009, 284, 13291-13295; McMahon, M., et al., Keap1 perceives stress via three sensors for the endogenous signaling molecules nitric oxide, zinc, and alkenals. Proc. Natl. Acad. Sci. U.S.A. 2010, 107, 18838-18843. Whether 2b activates Nrf2 by generating ROS or redox changes also was examined.

Data set [3] concerns mice subjected to total body irradiation (TBI). Kind of data set: Survival of mice after total body irradiation. Conditions: 5 more doses every 48 h; for survival: 30 days. Type of data set: in vivo, mice (C57BL/6). As for the experimental part: To determine whether 2-trifluoromethyl-2′-methoxychalone, a potent Nrf2 activator, improves survival after lethal irradiation, irradiated mice were treated with 2-trifluoromethyl-2′-methoxychalone (200 μmol/kg body weight) or vehicle (100% PEG) by gavage. […] (LD70/30; 70% death in 30 days).
To investigate the therapeutic efficacy of compound 2b to mitigate mortality and the hematopoietic syndrome, mice were subjected to total body irradiation (TBI). C57BL/6 (8 wks, males,) were fed chow pellets ad libitum and supplied non-acidic water. Mice were subjected to TBI (0.65 Gy/min) in an AECL Gamma cell 40 irradiator (Atomic Energy, Canada).
Mortality was monitored every day for 30 days.
Mortality was monitored every day for 30 days. […] The percent mortality of mice treated with the vehicle at 1 h or 6 h after radiation was 100% (data not shown).

The test system is the same in data set [4]. Put plainly: Hematopoietic recovery after total body irradiation. Type of data set: in vivo. As for the experimental part:
At indicated time periods, a cohort of mice was sacrificed. Peripheral blood was collected by heart puncture at the indicated days and differential blood cell count was analyzed using Hemavet 950FS(P<0.05, n=3 per group). Femur bones were fixed, decalcified sectioned along the sagittal plan and stained with hematoxylin and eosin for analyzing marrow cellularity.

The subject of data set [5] is Nrf2. Kind of data set: Pharmacodynamic markers of Nrf2 activity (NQO1, HO-1, GCLM) in irradiated mice. Format: in vivo. Conditions: irradiated (6.9Gy) mice, day 12, compared to vehicle. Here is the method: NQO1, HO-1 and GCLM levels were analyzed in bone marrow (FIG. 12A), lung (FIG. 12B) and small intestine (FIG. 12C) harvested at day 12 from irradiated (6.9Gy) mice treated with vehicle or drug.

Another data set concerns hematopoietic stem cells. Kind of data set: Bone marrow mononuclear cells and hematopoietic stem cells in irradiated mice. The settings on record: 6.9Gy, single dose 24 h after irradiation, compared to vehicle. Format: in vivo.
The subject of data set [6] is chemotherapy-induced neutropenia. Kind of data set: Cyclophosphamide-induced reversible neutropenia in mice. Format: in vivo. The settings on record: cyclophosphamide i.p. day 0 and day 5, treatment every 48 h, compared to vehicle. Here is the method:
At indicated time periods, a cohort of mice was sacrificed. Peripheral blood was collected and differential blood cell count was analyzed using a Hemavet 950S.

Data set [7] deals with LPS-induced TNF-α secretion. Kind of data set: LPS-induced TNF-α secretion by mouse peritoneal macrophages. Type of data set: cell-based, mice. Conditions: 5 μM or 10 μM for 16-20 h, LPS 100 ng/mL 4 h, compared to vehicle. Here is the method: After 4 h, TNF-α secretion in cell-free media by macrophages was analyzed by ELISA.
Setting [8] is: Beas-2B cells, 10 μM, 6 h after treatment.

On to `COc1ccccc1C(=O)/C=C/c1ccccc1C(F)(F)F` [Compound 2b, (E)-1-(2-methoxyphenyl)-3-(2-(trifluoromethyl)phenyl)prop-2-en-1-one], for which, in the data set on Beas-2B cells, the “% Cell Viability” value is listed as 100.9%. For the same compound, in the data set on Nrf2 [1] (Beas-2B cells, 10 μM), the “expression of HO-1 compared to sulforaphane” value came out at 6 fold. For the same compound, the “expression of NQO1 over time” value in the data set with Nrf2 [1] (Beas-2B cells, 10 μM, 6, 12, 24 and 48 h) is “highest at 24 h and remained significantly elevated even at 48 h”. Moreover, the “highest induction of GCLM” value with Nrf2 [1] (setting [8]) is reported as “approximately 7 fold”. For the same compound, in the data set with Nrf2 [1] (setting [8]), the “highest induction of HO-1” value is reported as “approximately 150 fold”. In addition, the “expression of GCLM and HO-1 at 48 h” value in the data set on Nrf2 [1] (Beas-2B cells, 10 μM, 48 h) is “comparable to vehicle by 48 h”. Further, the “increase in the expression of GCLM” value with Nrf2 [1] (Beas-2B cells, 20 μM, 24 h) is “approximately 5 fold”. For the same compound, in the data set with Nrf2 [1] (Beas-2B cells, 20 μM, 24 h), the “increase in the expression of NQO1” value is recorded as roughly 10 fold. For the same compound, in the data set on Nrf2 [1] (Beas-2B cells, 2.5, 5, 10, 20 μM, 24 h), the “Nrf2-regulated gene expression (GCLM, NQO1, HO1)” value was “significantly increased the Nrf2-regulated gene expression in a concentration-dependent manner”. Moreover, the “expression of GCLM, NQO1 and HO1 in the presence of NAC” value with Nrf2 [2] is “potentially increase the expression of Nr2-regulated antioxidant genes in the presence of NAC”. The compound also registered a median survival in data set [3] (7.3 Gy TBI, treatment started 24 hours after irradiation, 200 μmol/kg by gavage, vehicle approximately 15 days) of 26 days. Further, the survival in data set [3] (TBI 6.9 Gy, oral 400 mg/Kg started 24 h after TBI) is on record as 90%; in data set [3] (TBI 7.1 Gy, oral 400 mg/Kg started 24 h after TBI), 60%; in data set [3] (TBI 7.3 Gy, oral treatment started 1 h after TBI), “approximately 60%”; in data set [3] (TBI 7.3 Gy, oral treatment started 6 h after TBI) it was roughly 50%. Further, the “bone marrow cellularity (H&E staining)” value in data set [4] (6.9 Gy TBI, day 7 and day 20, compared to vehicle) is reported as “greater marrow cellularity”. For the same compound, the “WBC, RBC and platelets on day 22 post-irradiation” value in data set [4] (6.9 Gy TBI, oral treatment from 24 h after) is “significant increase in WBC, red blood cells (RBC) and platelets”. Besides, in data set [4] (6.9 Gy TBI, oral treatment from 24 h after, compared to vehicle), the “white blood cells, neutrophils and lymphocytes post-irradiation” value was “early increase in white blood cells (WBC), neutrophils and lymphocytes”. The “hematopoietic reconstitution (CBC analysis, WBC)” value in [4] (7.3 Gy TBI, treatment 24 hours after, 30 days) is listed as “significant recovery of WBC”. In addition, the “Nrf2 regulated antioxidants (NQO1, HO-1, GCLM) in BM-MNC, gut and lung” value in the data set with Nrf2 [5] is on record as “significantly elevated”. The “total BM-MNC per limb and total HSPC, HSC and MPP” value in the data set with hematopoietic stem cells (analysed 24 h after treatment) was “significantly higher”. In addition, the “viable hematopoietic stem cells (colony forming cells assay)” value in the data set on hematopoietic stem cells is reported as “increased number of hematopoietic stem cells”. In data set [6], the duration of neutropenia result is “significantly reduced the duration of neutropenia”. For the same compound, in data set [7], the “LPS-induced TNF-α secretion by macrophages (ELISA)” value is reported as “significant decrease in LPS-induced TNF-α secretion”.

Values taken from patent US20140088052A1, “CHALCONE DERIVATIVES AS NRF2 ACTIVATORS” (THE JOHNS HOPKINS UNIVERSITY, priority 2011, published 2014).
